ChEMBL document CHEMBL1201862, “PubChem BioAssay data set” (2004)
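All cell lines were grown in 96-well plates and treated with compound for 48 hours. GI50 marks 50% less growth.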 Active and inactive are the calls of the source. Rule as the data show it: active = GI50 up to about 1.1 µM and inactive = higher.

Tests used:
Experiment in all cases: inhibition of tumour cell growth, NCI panel, 48 h
[1] = tested on: SNB-19
[2] = tested on: SF-539
[3] = tested on: TK-10
[4] = tested on: LOX IMVI
[5] = tested on: SW-620
[6] = tested on: NCI-H23
[7] = tested on: Malme-3M
[8] = tested on: UACC-257
[9] = tested on: SK-OV-3
[10] = tested on: SF-295
[11] = tested on: ACHN
[12] = tested on: OVCAR-3
[13] = tested on: K562
[14] = tested on: M14
[15] = tested on: SK-MEL-28
[16] = tested on: SK-MEL-2
[17] = tested on: SN12C
[18] = tested on: HOP-62
[19] = tested on: HL-60

Measured: GI50

COc1ccc(-c2cc(=O)c3c(O)c(OC)c(OC)c(OC)c3o2)cc1OC [5-DEMETHYLNOBILETIN]
inactive: [1] > 100 µM | [2] 86.5 µM | [3] 67.1 µM | [4] 47.8 µM | [5] > 10 µM | [6] > 100 µM | [7] > 100 µM | [8] > 100 µM | [9] 20.4 µM | [10] > 100 µM | [11] > 100 µM | [12] > 100 µM | [13] > 100 µM | [14] > 100 µM | [15] > 100 µM | [16] 91.2 µM | [17] > 100 µM | [18] 19.5 µM | [19] > 100 µM

COc1ccccc1Nc1nc(NNC(=O)Cc2ccccc2)nc(NNC(=O)c2ccncc2)n1
inactive: [2] > 10 µM | [3] > 10 µM | [4] > 10 µM | [5] > 10 µM | [6] > 10 µM | [7] > 10 µM | [8] > 10 µM | [9] > 10 µM | [13] > 10 µM | [14] > 10 µM | [15] > 10 µM | [17] > 10 µM | [18] > 10 µM | [19] > 10 µM

O=c1cccccc1NCCCCCCNc1cccccc1=O
inactive: [1] > 100 µM | [3] > 100 µM | [4] > 100 µM | [5] > 100 µM | [6] > 100 µM | [7] > 100 µM | [8] > 100 µM | [9] > 100 µM | [10] > 100 µM | [11] > 100 µM | [12] > 100 µM | [13] > 100 µM | [14] > 100 µM | [15] > 100 µM | [16] > 100 µM | [17] > 100 µM | [18] > 100 µM | [19] > 100 µM

CC1(C)O[C@H]2OC(CO)C(N=[N+]=[N-])[C@H]2O1 (stereo partly drawn)
inactive: [1] > 100 µM | [2] > 100 µM | [3] > 100 µM | [4] > 100 µM | [5] > 100 µM | [6] > 100 µM | [7] > 100 µM | [8] > 100 µM | [10] > 100 µM | [11] > 100 µM | [12] > 100 µM | [14] > 100 µM | [15] > 100 µM | [16] > 100 µM | [17] > 100 µM | [18] > 100 µM | [19] > 100 µM

COc1ccc(NC(=S)N/N=C/c2cccc(C)n2)cc1
inactive: [1] 7.16 µM | [2] 6.12 µM | [3] 8.13 µM | [4] 3.65 µM | [5] 2.86 µM | [6] 6.05 µM | [7] 3.13 µM | [8] 2.53 µM | [9] 4.61 µM | [10] 4.09 µM | [11] 2.83 µM | [12] 3.48 µM | [13] 1.62 µM | [14] 2.4 µM | [15] 5.68 µM | [16] 6.4 µM | [17] 5.79 µM | [18] 4.32 µM | [19] 1.84 µM

CC(=O)OC(Cc1c(O)c2c(C)cccc2oc1=O)C(C)(C)O (stereo not drawn)
inactive: [1] > 100 µM | [2] > 100 µM | [3] > 100 µM | [4] > 100 µM | [5] > 100 µM | [6] > 100 µM | [7] > 100 µM | [8] > 100 µM | [9] > 100 µM | [10] > 100 µM | [11] > 100 µM | [12] > 100 µM | [13] > 100 µM | [14] > 100 µM | [15] 88.1 µM | [16] > 100 µM | [17] > 100 µM | [18] > 100 µM | [19] 72.6 µM

C=C(C)COC1CCCCO1 (stereo not drawn)
inactive: [1] > 100 µM | [2] > 100 µM | [3] > 100 µM | [4] > 100 µM | [5] > 100 µM | [6] > 100 µM | [7] > 100 µM | [8] > 100 µM | [9] > 100 µM | [10] > 100 µM | [11] > 100 µM | [12] > 100 µM | [13] 41.6 µM | [14] > 100 µM | [15] > 100 µM | [16] > 100 µM | [17] > 100 µM | [18] > 100 µM | [19] > 100 µM

CC1=C/C(O)CC(=O)Cc2nc(co2)C(=O)N2CCC=C2C(=O)OC(C(C)C)C(C)/C=C\C(=O)NC/C=C\1 (stereo not drawn)
inactive: [1] 89.3 µM | [2] 30.1 µM | [3] 31.6 µM | [4] 17.2 µM | [5] 18.1 µM | [6] 17.1 µM | [7] 11.7 µM | [8] 35.3 µM | [9] 53.1 µM | [10] 48 µM | [11] 12.5 µM | [12] 19.8 µM | [13] 31 µM | [14] 17.3 µM | [15] 19.6 µM | [16] 17.4 µM | [17] 14.9 µM | [18] 31.5 µM | [19] 20.3 µM

O=c1cc2ccccc2nn1Cc1ccccc1Cl
inactive: [1] > 100 µM | [2] > 100 µM | [3] > 100 µM | [4] > 100 µM | [5] > 100 µM | [6] 88.9 µM | [7] > 100 µM | [8] > 100 µM | [9] > 100 µM | [10] > 100 µM | [11] > 100 µM | [12] 94.6 µM | [13] 85.3 µM | [14] > 100 µM | [15] > 100 µM | [16] > 100 µM | [17] > 100 µM | [18] > 100 µM

CN1CCN(CCCN2c3ccccc3Sc3ccc(C(F)(F)F)cc32)CC1
inactive: [1] 11.4 µM | [2] 4.65 µM | [4] 2.73 µM | [6] 11.1 µM | [7] 1.45 µM | [8] 1.91 µM | [9] 13.5 µM | [10] 5.79 µM | [11] 10.7 µM | [14] 1.72 µM | [15] 1.66 µM | [16] 4.18 µM | [17] 7.57 µM | [18] 11.3 µM | [19] 4.58 µM

c1ccc(N2CCN(CCN3CCc4c([nH]c5ccccc45)C3c3cccnc3)CC2)cc1 (stereo not drawn)
inactive: [1] > 100 µM | [2] 20.5 µM | [3] > 100 µM | [5] > 100 µM | [6] > 100 µM | [8] > 100 µM | [9] 24 µM | [10] 80 µM | [11] > 100 µM | [12] > 100 µM | [13] 7.14 µM | [14] > 100 µM | [15] > 100 µM | [17] > 100 µM | [18] 89.1 µM | [19] > 100 µM
